Results taken from patent US11357748B2, “Methods for treating mendelian disorders of the epigenetic machinery” (THE JOHNS HOPKINS UNIVERSITY, priority 2014, dated 2022).
Entries after “also recorded” stand apart in the source; their conditions may differ. Like-named read-outs stand apart in the source and are kept apart here.

Legend:
[1] = tested on: H3K4 trimethylation activity in Kmt2d+/βGeo MEFs; assay: H3K4me3 indicator in murine embryonic fibroblasts (MEFs) from Kmt2d+/βGeo and Kmt2d+/+ mice; format: cell-based, mouse; conditions: Kmt2d+/βGeo MEFs; FIG. 18H, 22A, 23
Source text: An H3K4 trimethylation reporter was also created (FIG. 5B). This reporter is based on the H3 tail on one end and the TBP associated factor III (TAFIII) […] on the other end; the TAFIII […] only identifies and binds to trimethylated K4 on H3. When the H3K4 site gets trimethylated, the TAFIII […] can bind to the modified H3 tail and bring the two parts of the separated GFP in close proximity. The activity of the epigenetic modification system can be quantified through fluorescence.
Epigenetic reporter alleles were synthesized (OriGene, Rockville, Md.) using published sequences for component elements (Baird et al. (1999) Proc. Natl. Acad. Sci. 96:11241-6; Souslova et al. (2007) BMC Biotechnol. 7:37). Single nucleotide mutations were created using the QuickChange Lightening kit (Agilent Technologies Inc, Santa Clara, Calif.). For H4ac indicator, K5R, K8R, K12R, K16R and K20R (MUT indicator) were introduced. For H3K4me3 indicator, K4Q and D890A/W891A and M882A (three separate constructs) were introduced. […] FACS data were analyzed using FlowJo (Tree Star Inc, Ashland, Oreg.). […]
Epigenetic reporter systems were created that monitor either H4 acetylation or H3K4 trimethylation machinery activity in an effort to determine whether there is an ongoing activity deficiency in cells from Kmt2d^+/βGeo mice (FIG. 18A). Both reporter alleles encode halves of green fluorescent protein separated by a flexible linker region (Baird et al. (1999) Proc. Natl. Acad. Sci. 96: 11241-6) with a histone tail and a histone reader at the N- and C-termini, respectively. When the histone tail corresponding to either H4 or H3 is modified by acetylation or methylation, respectively, GFP structure and function are reconstituted, as detected by a fluorescent readout (FIG. 18B). The acetyl reporter protein quantifies the activity of the acetylation machinery (acetylation of H4 specifically at sites K5, K8, K12, and K16) and comprises an H4 tail (residues 1-30) on one end and a TATA binding protein (TBP)-associated factor II (TAFII) bromodomain on the other end (FIG. 18A). […]

[2] = tested on: H4 acetylation machinery (H4ac indicator); assay: H4 acetylation (H4ac) indicator reporter allele, GFP fluorescence by FACS in stably transfected T293/HEK293 cells; format: cell-based; conditions: FIG. 18C, 18D, 19A, 19B, 20
Source text: The acetyl reporter protein quantifies the activity of the acetylation machinery (acetylation of H4 specifically at the 5th, 8th, 12th and 16th Lysine's) and comprises an H4 tail on one end (the target for acetylation) and a TBP associated factor II (TAFII) bromodomain on the other end of the reporter protein (FIG. 5A). The TAFII bromodomain only recognizes and binds to the acetylated H4 tail, resulting in reconstitution of GFP structure and function (i.e. fluorescence). Therefore, the reporter protein has no fluorescence unless it is acetylated by the acetylation system of the nucleus of the cell.
Epigenetic reporter alleles were synthesized (OriGene, Rockville, Md.) using published sequences for component elements (Baird et al. (1999) Proc. Natl. Acad. Sci. 96:11241-6; Souslova et al. (2007) BMC Biotechnol. 7:37). […] FACS data were analyzed using FlowJo (Tree Star Inc, Ashland, Oreg.). […]
Epigenetic reporter systems were created that monitor either H4 acetylation or H3K4 trimethylation machinery activity in an effort to determine whether there is an ongoing activity deficiency in cells from Kmt2d^+/βGeo mice (FIG. 18A). Both reporter alleles encode halves of green fluorescent protein separated by a flexible linker region (Baird et al. (1999) Proc. Natl. Acad. Sci. 96: 11241-6) with a histone tail and a histone reader at the N- and C-termini, respectively. […]

[3] = tested on: mouse models of Rubinstein-Taybi syndrome; conditions: cited from earlier work
HDAC = conditions: Phiel et al. (2001); cited from earlier work

## Nc1ccccc1NC(=O)c1ccc(CNC(=O)OCc2cccnc2)cc1 [MS275, Pyridin-3-ylmethyl N-[[4-[(2-aminophenyl)carbamoyl]phenyl]methyl]carbamate]
[1]
  H3K4 trimethylation activity in Kmt2d+/βGeo cells upon treatment: enhanced; also recorded: improved

## O=C(CCCCCCC(=O)Nc1ccccc1)NO [SAHA, N′-hydroxy-N-phenyl-octanediamide]
[2]
  H4ac indicator fluorescence response to increasing amounts of drug: linear fluorescence response; also recorded: increasing fluorescence; also recorded: increases acetylation of the indicator; also recorded: increased signal
[3]; intracerebroventricular administration
  neurological phenotypes in Rubinstein-Taybi mouse models: respond

## CC(C=CC(=O)NO)=CC(C)C(=O)c1ccc(N(C)C)cc1 (centres unmarked) [trichostatin A, 7-[4-(dimethylamino)phenyl]-N-hydroxy-4,6-dimethyl-7-oxohepta-2,4-dienamide]
[3]; intraperitoneal administration
  neurological phenotypes in Rubinstein-Taybi mouse models: respond

## CCCC(CCC)C(=O)O [valproic acid, 2-Propylpentanoic acid]
HDAC
  HDAC inhibitor activity: potent HDACi
